From US20260274892A1, “MACROCYCLIC BROAD SPECTRUM ANTIBIOTICS” (RQx Pharmaceuticals, Inc., priority 2017, published 2026)

These compounds were tested on Escherichia coli ATCC 25922 (assay: Minimum inhibitory concentration (MIC), CLSI broth micro-dilution, E. coli). Settings: Escherichia coli, ATCC25922, 22 h, Table 6, cation adjusted Mueller Hinton Broth + 0.002% Tween-80, 35° C.
Format: cell-based
How it was run: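 Antibacterial potency is measured as MIC by the CLSI broth dilution method. Bacteria at OD600 0.0005 in Tween-80-supplemented cation-adjusted Mueller Hinton broth face ten twofold compound dilutions for 22 h at 35° C.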
Work on `Cc1nc(-c2ccc(OCCC(C)(C)C)cc2)nc(N)c1C(=O)N[C@@H](CCN)C(=O)N(C)[C@@H]1C(=O)N[C@@H](C)C(=O)N[C@H](C(=O)NCC#N)Cc2ccc(OCCCN)c(c2)-c2cc1ccc2OCCCN` (racemic) [Compound 436, rac-(8S,11S,14S)-3,18-bis(3-aminopropoxy)-N-(cyanomethyl)-11-methyl-14-[methyl-[rac-(2S)-4-amino-2-[[4-amino-2-[4-(3,3-dimethylbutoxy)phenyl]-6-methyl-pyrimidine-5-carbonyl]amino]butanoyl]amino]-10,13-dioxo-9,12-diazatricyclo[13.3.1.12,6]icosa-1(18),2(20),3,5,15(19),16-hexaene-8-carboxamide] yielded an MIC of 0.063 µM.

Same assay, conditions: Escherichia coli, ATCC25922, Table 6, cation adjusted Mueller Hinton Broth + 0.002% Tween-80, 35° C., 22 hours
In the case of `Cc1nc(-c2ccc(C(C)(C)C)cc2)ncc1C(=O)N[C@@H](CCN)C(=O)N(C)[C@@H]1C(=O)N[C@@H](C)C(=O)N[C@H](C(=O)NCC#N)Cc2ccc(OCCCN)c(c2)-c2cc1ccc2OCCCN` (racemic) [Compound 433, rac-(8S,11S,14S)-3,18-bis(3-aminopropoxy)-N-(cyanomethyl)-11-methyl-14-[methyl-[rac-(2S)-4-amino-2-[[2-(4-tert-butylphenyl)-4-methyl-pyrimidine-5-carbonyl]amino]butanoyl]amino]-10,13-dioxo-9,12-diazatricyclo[13.3.1.12,6]icosa-1(18),2(20),3,5,15(19),16-hexaene-8-carboxamide], the MIC was 0.096 µM.
In the case of `CNC(=N)NCCOc1ccc2cc1-c1cc(ccc1OCCNC(=N)NC)[C@H](N(C)C(=O)[C@H](CCN)NC(=O)c1c(C)nc(-c3ccc(C(C)(C)C)cc3)nc1C)C(=O)N[C@@H](C)C(=O)N[C@H](C(=O)NCC#N)C2` (racemic) [Compound 441, rac-(8S,11S,14S)-N-(cyanomethyl)-11-methyl-3,18-bis[2-[(N-methylcarbamimidoyl)amino]ethoxy]-14-[methyl-[rac-(2S)-4-amino-2-[[2-(4-tert-butylphenyl)-4,6-dimethyl-pyrimidine-5-carbonyl]amino]butanoyl]amino]-10,13-dioxo-9,12-diazatricyclo[13.3.1.12,6]icosa-1(18),2(20),3,5,15(19),16-hexaene-8-carboxamide], the MIC was 0.38 µM.
`Cc1nc(-c2ccc(C(C)(C)C)cc2)ncc1C(=O)N[C@@H](CCN)C(=O)N(C)[C@@H]1C(=O)N[C@@H](C)C(=O)N[C@H](C(=O)NCC#N)Cc2ccc(OCCN(C)C)c(c2)-c2cc1ccc2OCCN(C)C` (racemic) [Compound 442, rac-(8S,11S,14S)-N-(cyanomethyl)-3,18-bis[2-(dimethylamino)ethoxy]-11-methyl-14-[methyl-[rac-(2S)-4-amino-2-[[2-(4-tert-butylphenyl)-4-methyl-pyrimidine-5-carbonyl]amino]butanoyl]amino]-10,13-dioxo-9,12-diazatricyclo[13.3.1.12,6]icosa-1(18),2(20),3,5,15(19),16-hexaene-8-carboxamide] gave an MIC of 0.91 µM.
`CCCCCCCCc1ccc(C(=O)N[C@@H](CCNS(N)(=O)=O)C(=O)N(C)[C@@H]2C(=O)N[C@@H](C)C(=O)N[C@H](C(=O)NCC#N)Cc3ccc(OCCN)c(c3)-c3cc2ccc3OCCN)c(C)c1` (racemic) [Compound 449, rac-(8S,11S,14S)-3,18-bis(2-aminoethoxy)-N-(cyanomethyl)-11-methyl-14-[methyl-[rac-(2S)-2-[(2-methyl-4-octyl-benzoyl)amino]-4-(sulfamoylamino)butanoyl]amino]-10,13-dioxo-9,12-diazatricyclo[13.3.1.12,6]icosa-1(18),2(20),3,5,15(19),16-hexaene-8-carboxamide] gave an MIC of 0.5 µM.
Work on `CCCCCCCCc1ccc(C(=O)N[C@@H](CCCNC(N)=O)C(=O)N(C)[C@@H]2C(=O)N[C@@H](C)C(=O)N[C@H](C(=O)NCC#N)Cc3ccc(OCCN)c(c3)-c3cc2ccc3OCCN)c(C)c1` (racemic) [Compound 450, rac-(8S,11S,14S)-3,18-bis(2-aminoethoxy)-N-(cyanomethyl)-11-methyl-14-[methyl-[rac-(2S)-2-[(2-methyl-4-octyl-benzoyl)amino]-5-ureido-pentanoyl]amino]-10,13-dioxo-9,12-diazatricyclo[13.3.1.12,6]icosa-1(18),2(20),3,5,15(19),16-hexaene-8-carboxamide] yielded an MIC of 2.1 µM.
Work on `CONCC[C@H](NC(=O)c1cnc(-c2ccc(C(C)(C)C)cc2)nc1C)C(=O)N(C)[C@@H]1C(=O)N[C@@H](C)C(=O)N[C@H](C(=O)NCC#N)Cc2ccc(OCCN)c(c2)-c2cc1ccc2OCCN` (racemic) [Compound 460, rac-(8S,11S,14S)-3,18-bis(2-aminoethoxy)-N-(cyanomethyl)-11-methyl-14-[methyl-[rac-(2S)-2-[[2-(4-tert-butylphenyl)-4-methyl-pyrimidine-5-carbonyl]amino]-4-(methoxyamino)butanoyl]amino]-10,13-dioxo-9,12-diazatricyclo[13.3.1.12,6]icosa-1(18),2(20),3,5,15(19),16-hexaene-8-carboxamide] yielded an MIC of 4.1 µM.
Work on `Cc1nc(-c2ccc(C(C)(C)C)cc2)nc(C)c1C(=O)N[C@@H](COC(C)(C)C)C(=O)N[C@@H](CCN)C(=O)N(C)[C@@H]1C(=O)N[C@@H](C)C(=O)N[C@H](C(=O)NCC#N)Cc2ccc(OCCN)c(c2)-c2cc1ccc2OCCN` (racemic) [Compound 466, rac-(8S,11S,14S)-3,18-bis(2-aminoethoxy)-N-(cyanomethyl)-11-methyl-14-[methyl-[rac-(2S)-4-amino-2-[[rac-(2S)-3-tert-butoxy-2-[[2-(4-tert-butylphenyl)-4,6-dimethyl-pyrimidine-5-carbonyl]amino]propanoyl]amino]butanoyl]amino]-10,13-dioxo-9,12-diazatricyclo[13.3.1.12,6]icosa-1(18),2(20),3,5,15(19),16-hexaene-8-carboxamide] yielded an MIC of 1.5 µM.
`Cc1nc(-c2ccc(C(C)(C)C)cc2)nc(C)c1C(=O)N[C@H](COC(C)(C)C)C(=O)N[C@@H](CCN)C(=O)N(C)[C@@H]1C(=O)N[C@@H](C)C(=O)N[C@H](C(=O)NCC#N)Cc2ccc(OCCN)c(c2)-c2cc1ccc2OCCN` (racemic) [Compound 468, rac-(8S,11S,14S)-3,18-bis(2-aminoethoxy)-N-(cyanomethyl)-11-methyl-14-[methyl-[rac-(2S)-4-amino-2-[[rac-(2R)-3-tert-butoxy-2-[[2-(4-tert-butylphenyl)-4,6-dimethyl-pyrimidine-5-carbonyl]amino]propanoyl]amino]butanoyl]amino]-10,13-dioxo-9,12-diazatricyclo[13.3.1.12,6]icosa-1(18),2(20),3,5,15(19),16-hexaene-8-carboxamide] gave an MIC of 1 µM.
Compound `CCCCCCc1ccc(C(=O)N2C[C@H](N)CC2C(=O)N(C)[C@@H]2C(=O)N[C@@H](C)C(=O)N[C@H](C(=O)NCC#N)Cc3ccc(OCCN)c(c3)-c3cc2ccc3OCCN)c(C)c1` (mixture of isomers) [Compound 481, rac-(8S,11S,14S)-3,18-bis(2-aminoethoxy)-14-[[4-amino-1-(4-hexyl-2-methyl-benzoyl)pyrrolidine-2-carbonyl]-methyl-amino]-N-(cyanomethyl)-11-methyl-10,13-dioxo-9,12-diazatricyclo[13.3.1.12,6]icosa-1(18),2(20),3,5,15(19),16-hexaene-8-carboxamide] has an MIC of 2.3 µM.
Work on `Cc1nc(-c2ccc(C(C)(C)C)cc2)ncc1C(=O)N[C@@H](CNC(=O)CN)C(=O)N(C)[C@@H]1C(=O)N[C@@H](C)C(=O)N[C@H](C(=O)NCC#N)Cc2ccc(OCCN)c(c2)-c2cc1ccc2OCCN` (racemic) [Compound 491, rac-(8S,11S,14S)-3,18-bis(2-aminoethoxy)-N-(cyanomethyl)-11-methyl-14-[methyl-[rac-(2S)-3-[(2-aminoacetyl)amino]-2-[[2-(4-tert-butylphenyl)-4-methyl-pyrimidine-5-carbonyl]amino]propanoyl]amino]-10,13-dioxo-9,12-diazatricyclo[13.3.1.12,6]icosa-1(18),2(20),3,5,15(19),16-hexaene-8-carboxamide] yielded an MIC of 3.1 µM.
`Cc1nc(-c2ccc(C(C)(C)C)cc2)ncc1C(=O)N[C@@H](CCNCC(N)=O)C(=O)N(C)[C@@H]1C(=O)N[C@@H](C)C(=O)N[C@H](C(=O)NCC#N)Cc2ccc(OCCN)c(c2)-c2cc1ccc2OCCN` (racemic) [Compound 493, rac-(8S,11S,14S)-3,18-bis(2-aminoethoxy)-N-(cyanomethyl)-11-methyl-14-[methyl-[rac-(2S)-4-[(2-amino-2-oxo-ethyl)amino]-2-[[2-(4-tert-butylphenyl)-4-methyl-pyrimidine-5-carbonyl]amino]butanoyl]amino]-10,13-dioxo-9,12-diazatricyclo[13.3.1.12,6]icosa-1(18),2(20),3,5,15(19),16-hexaene-8-carboxamide] was tested, and the MIC was 1 µM.
`Cc1nc(-c2ccc(C(C)(C)C)cc2)ncc1C(=O)N[C@@H](CCNC=O)C(=O)N(C)[C@@H]1C(=O)N[C@@H](C)C(=O)N[C@H](C(=O)NCC#N)Cc2ccc(OCCN)c(c2)-c2cc1ccc2OCCN` (racemic) [Compound 494, rac-(8S,11S,14S)-3,18-bis(2-aminoethoxy)-N-(cyanomethyl)-11-methyl-14-[methyl-[rac-(2S)-2-[[2-(4-tert-butylphenyl)-4-methyl-pyrimidine-5-carbonyl]amino]-4-formamido-butanoyl]amino]-10,13-dioxo-9,12-diazatricyclo[13.3.1.12,6]icosa-1(18),2(20),3,5,15(19),16-hexaene-8-carboxamide] gave an MIC of 1.1 µM.
`Cc1nc(-c2ccc(OC3CCCCC3)cc2)nc(C)c1C(=O)N[C@@H](CCNC=O)C(=O)N(C)[C@@H]1C(=O)N[C@@H](C)C(=O)N[C@H](C(=O)NCC#N)Cc2ccc(OCCN)c(c2)-c2cc1ccc2OCCN` (racemic) [Compound 504, rac-(8S,11S,14S)-3,18-bis(2-aminoethoxy)-N-(cyanomethyl)-11-methyl-14-[methyl-[rac-(2S)-2-[[2-[4-(cyclohexoxy)phenyl]-4,6-dimethyl-pyrimidine-5-carbonyl]amino]-4-formamido-butanoyl]amino]-10,13-dioxo-9,12-diazatricyclo[13.3.1.12,6]icosa-1(18),2(20),3,5,15(19),16-hexaene-8-carboxamide] gave an MIC of 0.75 µM.
